Laboratory results published in patent publication US11576979B2, “Pyrrolobenzodiazepine prodrugs and antibody conjugates thereof” (GENENTECH, INC., priority 2016, dated 2023).
Values joined by “and” are separate entries in the source; they are usually repeats but may differ in a detail not shown here. Equal entries are not always repeated.

Columns and labels:
[1] = Disulfide cleavage by glutathione (GSH), LC/MS; type: physicochemical; details: 15 uM compound, 4 mM GSH, pH 7.0, 37 C
Protocol: (§1) For disulfide cleavage determination, the compounds were incubated at 15 μM with 0.2 mM cysteine or 4 mM GSH in 100 mM Tris buffer pH 7.0 containing 5% methanol at 37° C. Aliquots were taken at specified time points and the samples were analyzed by LC/MS on Sciex TripleTOF 5600 on a Hypersil Gold C18 column (100×2.1, 1.9 Thermo Scientific). The column was eluted by a gradient of buffer A (0.1% formic acid in 10 mM ammonium acetate) to buffer B (0.1% formic acid in 10 mM ammonium acetate in 90% acetonitrile), 5% B 0-0.5 min, 5-25% B 0.5-8 min, 25-75% B 8-13 min, and 75-95% B 13-13.5 min, 95% B 13.5-14.5 min, 95-5% B 14.5-15 min at 0.4 mL/min. All products were separated and characterized by LC/MS/MS in a positive ESI ion mode. All analytes had the protonated molecular MH+ as the major species with little source fragmentation. Full scan accurate mass peak areas were used to estimate relative abundance of each component.

[2] = Disulfide cleavage by cysteine, LC/MS; type: physicochemical; details: 15 uM compound, 0.2 mM cysteine, pH 7.0, 37 C
Protocol: as §1

UACC-257 = assay: CellTiter-Glo toxicity, 4 days (Example 9); type: cell-based; details: 4 days of drug incubation, Table 7A
Protocol: (§2) The toxicity of various PBD monomer disulfide prodrugs and PBD dimer disulfide prodrugs was evaluated on UACC-257, Igrov-1 and A2058 cell lines. Cells were seeded in 384-well plate and treated with drug 24 hours later. After 4 days of drug incubation, the cell viability was determined using Promega CellTiter-Glo luminescent reagent, which measures ATP level (an indirect measure of cell number). The luminescent intensity was measured on PerkinElmer Envision reader. The relative cell viability was calculated by normalizing to non-drug treatment control and was graphed using KleidaGraph software package. IC50 value was determined as the concentration to obtain 50% of the maximum cell killing.

A2058 = assay: CellTiter-Glo toxicity, 4 days (Example 9); type: cell-based; details: 4 days of drug incubation, Table 7A
Protocol: as §2

Igrov-1 = assay: CellTiter-Glo toxicity, 4 days (Example 9); type: cell-based; details: 4 days of drug incubation, Table 7A
Protocol: as §2

Row | SMILES | % Remaining at 24 h by GSH [1] [%] | % Remaining at 24 h by Cys [2] | IC50 (UACC-257; Homo sapiens, UACC-257, 96 h) [nM] | IC50 (A2058; Homo sapiens, A2058, 96 h) [nM] | IC50 (Igrov-1; Homo sapiens, IGROV-1, 96 h) [nM] | % Remaining at 4 h by Cys ([2]; 4 h) [%] | IC50 (UACC-257) [nM] | IC50 (A2058) [nM] | IC50 (Igrov-1) [nM]
1 | C=C1C[C@H]2C(O)N(C(=O)OCC3(SSCC)CC3)c3cc(OC)c(OC)cc3C(=O)N2C1 (some centres unmarked) [PBD monomer disulfide prodrug 17] | 0 | 34.9% |  |  |  |  |  |  | 
2 | C=C1C[C@H]2C(O)N(C(=O)OCCSSC3CCCC3)c3cc(OC)c(OC)cc3C(=O)N2C1 (some centres unmarked) [PBD monomer disulfide prodrug 28] | 0 | 62.2% | 2100 | 920 | 2300 |  |  |  | 
3 | C=C1C[C@H]2C(O)N(C(=O)OCC3(SSC(C)C)CC3)c3cc(OC)c(OC)cc3C(=O)N2C1 (some centres unmarked) [PBD monomer disulfide prodrug 7] | 89.7 | 96.1% | > 30000 | 11000 | > 30000 |  |  |  | 
4 | C=C1C[C@H]2C(O)N(C(=O)OCC(CN(C)C)SSC(C)C)c3cc(OC)c(OC)cc3C(=O)N2C1 (some centres unmarked) [PBD monomer disulfide prodrug 20] | 0 | 0% |  |  |  | 34 |  |  | 
5 | C=C1C[C@H]2C(O)N(C(=O)OC[C@@H](C)SSC3COC3)c3cc(OC)c(OC)cc3C(=O)N2C1 (some centres unmarked) [PBD monomer disulfide prodrug 26] | 0 | 29.1% | 328 | 84.5 | 246 |  |  |  | 
6 | C=C1C[C@H]2C(O)N(C(=O)OCc3ccc(SSC(C)C)cc3)c3cc(OC)c(OC)cc3C(=O)N2C1 (some centres unmarked) [PBD monomer disulfide prodrug 19] | 0 | 4.4% | 147 | 37.7 | 77.4 |  |  |  | 
7 | C=C1C[C@H]2C(O)N(C(=O)OCC3(SSCC)CCOC3)c3cc(OC)c(OC)cc3C(=O)N2C1 (single isomer, unassigned) [PBD monomer disulfide prodrug 30] | 0 | 47.1% |  |  |  |  | 308 | 108 | 235
8 | C=C1C[C@H]2C(O)N(C(=O)OC[C@@H](C)SSCC)c3cc(OC)c(OC)cc3C(=O)N2C1 (some centres unmarked) [PBD monomer disulfide prodrug 12] | 9.5 | 72.7% | 156 | 31.1 | 83.6 |  |  |  | 
9 | C=C1C[C@H]2C(O)N(C(=O)OC[C@@H](C)SSC3CCOCC3)c3cc(OC)c(OC)cc3C(=O)N2C1 (some centres unmarked) [PBD monomer disulfide prodrug 24] | 0 | 0.1% | 2690 | 596 | 1480 |  |  |  | 
10 | C=C1C[C@H]2C(O)N(C(=O)OCC3(SSCCO)CCCC3)c3cc(OC)c(OC)cc3C(=O)N2C1 (some centres unmarked) [PBD monomer disulfide prodrug 8] | 0.5 | 86.7% | 194 | 47.2 | 172 |  |  |  | 
11 | C=C1C[C@H]2C(O)N(C(=O)OCC3(SSCC)CCOC3)c3cc(OC)c(OC)cc3C(=O)N2C1 (single isomer, unassigned) [PBD monomer disulfide prodrug 11] | 0 | 14.4% | 331 | 108 | 207 |  |  |  | 
12 | C=C1C[C@H]2C(O)N(C(=O)OCCSSC(C)(C)C)c3cc(OC)c(OC)cc3C(=O)N2C1 (some centres unmarked) [PBD monomer disulfide prodrug 16] | 73.2 | 98.6% | 19500 | 5590 | 18500 |  |  |  | 
13 | C=C1C[C@H]2C(O)N(C(=O)OC[C@@H](C)SSC(C)(C)C)c3cc(OC)c(OC)cc3C(=O)N2C1 (some centres unmarked) [PBD monomer disulfide prodrug 13] | 98.8 | 99.9% | > 10000 | > 10000 | > 10000 |  |  |  | 
14 | C=C1C[C@H]2C(O)N(C(=O)OCC3(SSCCO)CCOC3)c3cc(OC)c(OC)cc3C(=O)N2C1 (some centres unmarked) [PBD monomer disulfide prodrug 22] | 0 | 1.4% | 80.6 | 23.7 | 39.8 |  |  |  | 
15 | C=C1C[C@H]2C(O)N(C(=O)OC[C@@H](C)SSC(C)C)c3cc(OC)c(OC)cc3C(=O)N2C1 (some centres unmarked) [PBD monomer disulfide prodrug 15] |  | 99.2% and 90.8% | 1500 | 304 | 928 |  |  |  | 
16 | C=C1C[C@H]2C(O)N(C(=O)OCCSSCCO)c3cc(OC)c(OC)cc3C(=O)N2C1 (some centres unmarked) [PBD monomer disulfide prodrug 29] | 0 | 0% | 142 | 29.1 | 57.8 |  |  |  | 
17 | C=C1C[C@H]2C(O)N(C(=O)OCC3(SSCC)CCCCC3)c3cc(OC)c(OC)cc3C(=O)N2C1 (some centres unmarked) [PBD monomer disulfide prodrug 18] | 18.7 | 75.3% |  |  |  |  |  |  | 
18 | C=C1C[C@H]2C(O)N(C(=O)OCC(C)(C)SSCC)c3cc(OC)c(OC)cc3C(=O)N2C1 (some centres unmarked) [PBD monomer disulfide prodrug 14] | 3 | 68.1% |  |  |  |  |  |  | 
19 | C=C1C[C@H]2C(O)N(C(=O)OCC(COC)SSC(C)C)c3cc(OC)c(OC)cc3C(=O)N2C1 (some centres unmarked) [PBD monomer disulfide prodrug 21] | 0 | 74.7% |  |  |  |  |  |  | 
20 | C=C1C[C@H]2C(O)N(C(=O)OCC3(SSCC(=O)O)CCC3)c3cc(OC)c(OC)cc3C(=O)N2C1 (some centres unmarked) [PBD monomer disulfide prodrug 9] | 1 | 81.1% | 2110 | 292 | 1050 |  |  |  | 
21 | C=C1C[C@H]2C(O)N(C(=O)OCCSSCCC(=O)O)c3cc(OC)c(OC)cc3C(=O)N2C1 (some centres unmarked) [PBD monomer disulfide prodrug 27] | 0 |  | 939 | 261 | 958 |  |  |  | 
